Read-outs that look alike come from different tables or passages of the source.
Legend:
[1] = tested on: substance P in human plasma
Experimental: (§1) To 50 μL portions of human plasma prepared in the same manner as in Example 1 was added a 400 mg/mL aqueous solution of glucose (special grade; Kanto Chemical Co., Inc.) prepared with purified water (100 μL), followed by mixing. […] The concentrations of substance P in the thawed portions of sample N were measured in the same manner as in Example 1 to calculate the residual rates, which are the index for the stability of substance P in plasma.
(§2) To 50 μL portions of human plasma prepared in the same manner as in Example 1 was added a 200 pg/mL aqueous solution of substance P (50 μL) to prepare six portions of sample.
(§3) After the preparation, the samples were frozen at −80° C. and then thawed at room temperature 0 day, 3 days and 13 days after the freezing. The concentrations of substance P in the thawed samples were measured in the same manner as in Example 1 using Substance P EIA Kit (Cayman) to calculate the residual rates, which are the index for the stability of substance P in plasma.

[2] = tested on: substance P in human plasma; conditions: 4° C. 18 hours
Experimental: To 50 μL portions of the human plasma were respectively added a 200 mg/mL aqueous solution of xylose, a 200 mg/mL aqueous solution of glucose, a 200 mg/mL aqueous solution of mannose and a 200 mg/mL aqueous solution of galactose (100 μL each), followed by mixing.
Measurement of substance P in samples A to D and the control sample was carried out in duplicate in the following manner, using Substance P EIA Kit (Cayman) according to the manual attached to the kit.
The above kit is a kit for enzyme immunoassay by the competitive method using, as a competitive substance, substance P bound to acetylcholine esterase (substance P AchE tracer). The measurement with this kit is carried out by allowing substance P in a sample and the competitive substance to competitively react with anti-substance P antibody on a solid phase and reacting acetylcholine esterase in the competitive substance bound to the anti-substance P antibody on a solid phase with Ellman's reagent to develop color, followed by the measurement of the absorbance. Then, the concentration of substance P in the sample can be determined based on a previously prepared calibration curve. […]

[3] = Stability of substance P in aqueous solution without plasma (Substance P EIA Kit); format: physicochemical; conditions: for Concentration of substance P measured in the substance P solution: 200 pg/mL aqueous solution
Experimental: When the 200 pg/mL aqueous solution of substance P was, without being mixed with the human plasma, subjected to measurement of substance P under the present measurement conditions including incubation at 4° C. for 18 hours, the obtained value was 226.16 pg/mL. […] On the other hand, as shown in the experiment on the control sample, when the sample having the initial substance P concentration of 116.93 pg/mL was subjected to measurement under the present measurement conditions including incubation at 4° C. for 18 hours, the obtained average substance P concentration was 60.57 pg/mL.
The concentrations of substance P in the human plasma used for the preparation of the samples subjected to the incubation for 16 hours, 24 hours and 48 hours were determined to be 15.02 pg/mL, 4.95 pg/mL and 5.71 pg/mL, respectively. The concentrations of substance P in the substance P solution used for the preparation of the samples subjected to the incubation for 16 hours, 24 hours and 48 hours were determined to be 211.1 pg/mL, 208.4 pg/mL and 197.8 pg/mL, respectively. From these measurement values, the theoretical values of the concentrations of substance P in the samples were calculated in the same manner as in Example 1, and the residual rates were calculated from the theoretical values and the measurement values.

[4] = tested on: neutral endopeptidase (NEP); assay: Effect of addition of a saccharide on degradation of substance P by neutral endopeptidase (NEP); format: biochemical; conditions: for Degradation of substance P by NEP: result in words
Experimental: Similarly, samples each comprising 150 μL of human plasma, 150 μL of a 200 pg/mL aqueous solution of substance P, 300 μL of a 400 mg/mL aqueous solution of glucose and 50 μL of an enzyme solution (respective NEP concentrations; 0 U/mL, 0.1 U/mL, 1.0 U/mL and 10.0 U/mL) were prepared.
Further, samples each comprising 150 μL of human plasma, 150 μL of a 200 pg/mL aqueous solution of substance P, 300 μL of a 10 mmol/L aqueous solution of phosphoramidon and 50 μL of an enzyme solution (respective NEP concentrations; 0 U/mL, 0.1 U/mL, 1.0 U/mL and 10.0 U/mL) were prepared.

[5] = tested on: substance P in human plasma; assay: Stabilization of substance P in plasma by addition of a saccharide when frozen at −80° C.; conditions: Example 6: same additive solutions
Experimental: as §1, §2, §3

O=C([O-])CN(CCN(CC(=O)[O-])CC(=O)O)CC(=O)O.[Na+].[Na+] [EDTA•2Na, ethylenediaminetetraacetic acid.disodium]
Residual rate, Day 3 [1]: 26.4%
Residual rate, Day 13 [1]: 32.6%

substance P
Average substance P concentration in plasma without saccharide ([2]; control sample, initial substance P concentration 116.93 pg/mL): 60.57 pg/mL
Stability of substance P in the presence of plasma ([2]; no saccharide, result in words): unstable
Concentration of substance P measured in the substance P solution ([3]; incubation 16 hours at 4° C.): 0.2111 ng/mL
Concentration of substance P measured in the substance P solution ([3]; incubation 24 hours at 4° C.): 0.2084 ng/mL
Concentration of substance P measured in the substance P solution ([3]; incubation 48 hours at 4° C.): 0.1978 ng/mL
Stability of substance P in the aqueous solution ([3]; 4° C. 18 hours, result in words): stable
Concentration of substance P measured in the 200 pg/mL aqueous solution of substance P ([3]; without human plasma, incubation at 4° C. for 18 hours): 0.22616 ng/mL
Residual rate of substance P, NEP concentration 0 U/mL ([4]; human plasma + substance P ± 400 mg/mL glucose or 10 mmol/L phosphoramidon solution, enzyme solution NEP 0 U/mL): 100.0%
Residual rate of substance P, NEP concentration 0.1 U/mL ([4]; human plasma + substance P ± 400 mg/mL glucose or 10 mmol/L phosphoramidon solution, enzyme solution NEP 0.1 U/mL): 102.2%
Residual rate of substance P, NEP concentration 1.0 U/mL ([4]; human plasma + substance P ± 400 mg/mL glucose or 10 mmol/L phosphoramidon solution, enzyme solution NEP 1.0 U/mL): 93.3%
Residual rate of substance P, NEP concentration 10.0 U/mL ([4]; human plasma + substance P ± 400 mg/mL glucose or 10 mmol/L phosphoramidon solution, enzyme solution NEP 10.0 U/mL): 84.0%
Degradation of substance P by NEP [4]: degraded by NEP

CC(C)C[C@H](NP(=O)(O)O[C@@H]1O[C@@H](C)[C@H](O)[C@@H](O)[C@H]1O)C(=O)N[C@@H](Cc1c[nH]c2ccccc12)C(=O)O [Phosphoramidon, phosphoramidon]
Residual rate, Day 3 ([1]; human, 3 days): 29.0%
Residual rate, Day 13 ([1]; human, 13 days): 25.6%
Degradation of substance P by NEP [4]: inhibited

magnesium gluconate
Residual rate, Day 3 ([5]; thawed 3 days after the freezing): 42.6%
Residual rate, Day 13 ([5]; thawed 13 days after the freezing): 40.1%
